Measured values published in article PMC8871619, “Pogostone inhibits the activity of CYP3A4, 2C9, and 2E1 in vitro” (Pharmaceutical Biology, 2021).

Tests used:
CYP3A4 [1] = target: T1, CYP3A4 (Homo sapiens, UniProt P08684); assay: Time-dependent inhibition study of CYP3A4 in human liver microsomes; assay type: in vitro ADME
T1 construct: Pooled human liver microsomes (HLMs) were purchased from BD Biosciences; tissue BD Biosciences; host or cells: pooled human liver microsomes
Method: (§1) The effect of incubation on the inhibitory effect of pogostone was evaluated by incubating for 0, 5, 10, 15, and 30 min at 37 °C. The concentration of pogostone in the time-dependent inhibition study was 20 μM with the 1 mg/mL HLMs. After incubation, an aliquot (20 μL) was transferred to another incubation tube (a final volume of 200 μL) containing an NADPH-generating system and probe substrates whose final concentrations were approximate to Km. Then, further incubations were performed to measure the residual activity. After being incubated for 10 and 30 min, the reactions were terminated by adding a 100 μL acetonitrile internal standard mix and then placed on ice; the corresponding metabolites were determined by HPLC.
Further experiments were performed to quantify the time-dependent inhibition by the KI and Kinact values. The incubation was conducted with a higher substrate concentration, which was about 4-fold to Km and 0, 2, 5, 10, 20, and 50 μM pogostone for 0, 5, 10, 15, and 30 min. A two-step incubation scheme was performed as described above.

CYP2C9 [2] = target: T2, CYP2C9 (Homo sapiens, UniProt P11712); assay: Inhibition of CYP2C9 (diclofenac 4′-hydroxylation) in human liver microsomes; assay type: in vitro ADME
T2 construct: Pooled human liver microsomes (HLMs) were purchased from BD Biosciences; tissue BD Biosciences; host or cells: pooled human liver microsomes
T2 sequence (P11712 whole entry): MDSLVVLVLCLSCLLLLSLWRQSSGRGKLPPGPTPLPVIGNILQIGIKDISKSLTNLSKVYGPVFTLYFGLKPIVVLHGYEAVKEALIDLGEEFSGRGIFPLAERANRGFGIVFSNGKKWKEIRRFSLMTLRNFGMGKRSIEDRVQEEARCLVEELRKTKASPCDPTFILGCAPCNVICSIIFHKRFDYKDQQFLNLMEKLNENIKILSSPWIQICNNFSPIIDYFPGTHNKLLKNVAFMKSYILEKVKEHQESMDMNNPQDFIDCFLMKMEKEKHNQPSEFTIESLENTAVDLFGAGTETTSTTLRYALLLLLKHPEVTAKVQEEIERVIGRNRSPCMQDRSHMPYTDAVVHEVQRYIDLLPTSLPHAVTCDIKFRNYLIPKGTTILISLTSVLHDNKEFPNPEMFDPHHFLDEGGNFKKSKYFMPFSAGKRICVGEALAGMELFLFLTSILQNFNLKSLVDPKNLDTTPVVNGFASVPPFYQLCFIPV
Method: (§2) The effect of pogostone on the activity of CYP450s was investigated with probe reactions (summarized in Table 1) in HLMs in accordance with previous studies (Zhang et al. [2007], [2020]). All incubations were conducted in triplicate with a volume of 200 μL, containing 100 mM potassium phosphate buffer (pH 7.4), NADPH-generating system (1 mM NADP^+, 10 mM glucose-6-phosphate, 1 U/mL of glucose-6-phosphate dehydrogenase, and 4 mM MgCl2), corresponding probe substrates, HLM, and 100 μM pogostone or positive inhibitors. The concentrations of positive inhibitors were: 10 μM furafylline for CYP1A2, 1 μM ketoconazole for CYP3A4, 10 μM tranylcypromine for CYP2A6, 50 μM clomethiazole for CYP2E1, 10 μM quinidine for CYP2D6, 10 μM sulphaphenazole for CYP2C9, 50 μM tranylcypromine for CYP2C19, and 5 μM montelukast for CYP2C8.
(§3) A 3 min preincubation was performed at 37 °C before the reactions were initiated by the addition of the NADPH-generating system. After the incubation, 100 μL acetonitrile or 10% trichloroacetic (for CYP2A6) was added to terminate the reactions and placed on ice. The mixture was centrifuged at 12,000 rpm for 10 min, and an aliquot (50 μL) of supernatant was transferred for corresponding metabolites analysis with HPLC.
(§4) The effect of pogostone on the activity of CYP450s was first investigated with 100 μM pogostone in HLMs. Then, the CYPs, of which the activity was inhibited by pogostone were incubated with 0, 2.5, 5, 10, 25, 50, and 100 μM pogostone and different probe substrates (20, 40, 60, and 100 μM testosterone for CYP3A4, 5, 10, 15, and 20 μM diclofenac for CYP2C9, or 25, 50, 150, and 250 μM chlorzoxazone for CYP2E1) to obtained the corresponding kinetic parameters, such as IC50 and Ki values.
(§5) The Lineweaver-Burk plots were used to obtain enzyme kinetic parameters by the least-squares linear regression of the inverse substrate concentration versus the inverse velocity. Inhibition data from the experiments that were conducted using multiple compound concentrations were represented by Dixon plots, and inhibition constant (Ki) values were calculated using non-linear regression according to the following equation: V=(VmaxS)/(Km(1+I/Ki)+S) where I is the concentration of the compound, Ki is the inhibition constant, S is the concentration of the substrate and Km is the substrate concentration at half the maximum velocity (Vmax) of the reaction. The mechanism of the inhibition was inspected using the Lineweaver–Burk plots and the enzyme inhibition models. The data comparison was performed using the Student’s t-test and performed using IBM SPSS statistics 20 (SPSS Inc., Chicago, IL, USA).

[3] = parameters: method as in Chen et al. [2013]; conditions: rats, oral administration, 5 mg/kg pogostone; ref Chen et al. [2013]; cited from earlier work
CYP2E1 [4] = target: T3, CYP2E1 (Homo sapiens, UniProt P05181); assay: Time-dependent inhibition study of CYP2E1 in human liver microsomes; assay type: in vitro ADME; conditions: 20 μM pogostone, 0-30 min, 1 mg/mL HLMs
T3 construct: Pooled human liver microsomes (HLMs) were purchased from BD Biosciences; tissue BD Biosciences; host or cells: pooled human liver microsomes
T3 sequence (P05181 whole entry): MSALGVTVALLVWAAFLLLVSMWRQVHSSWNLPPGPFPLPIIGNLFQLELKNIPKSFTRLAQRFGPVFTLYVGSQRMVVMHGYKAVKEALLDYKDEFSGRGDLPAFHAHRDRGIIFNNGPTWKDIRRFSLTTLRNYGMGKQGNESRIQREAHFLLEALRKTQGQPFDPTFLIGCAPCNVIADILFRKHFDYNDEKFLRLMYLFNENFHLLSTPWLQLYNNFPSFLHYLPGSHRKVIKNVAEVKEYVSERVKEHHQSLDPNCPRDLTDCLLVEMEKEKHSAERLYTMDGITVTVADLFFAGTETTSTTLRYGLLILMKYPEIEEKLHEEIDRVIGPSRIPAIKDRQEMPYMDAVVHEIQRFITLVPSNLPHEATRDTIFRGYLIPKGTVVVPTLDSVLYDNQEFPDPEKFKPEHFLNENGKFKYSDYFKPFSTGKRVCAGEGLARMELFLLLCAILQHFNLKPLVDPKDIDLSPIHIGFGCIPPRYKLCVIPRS
Method: as §1

CYP2E1 [5] = target: T3, CYP2E1; assay: Inhibition of CYP2E1 (chlorzoxazone 6-hydroxylation) in human liver microsomes; assay type: in vitro ADME
Method: as §2, §3, §4, §5

CYP2C9 [6] = target: T2, CYP2C9; assay: Time-dependent inhibition study of CYP2C9 in human liver microsomes; assay type: in vitro ADME; conditions: 20 μM pogostone, 0-30 min, 1 mg/mL HLMs
Method: as §1

CYP3A4 [7] = target: T1, CYP3A4; assay: Inhibition of CYP3A4 (testosterone 6β-hydroxylation) in human liver microsomes; assay type: in vitro ADME
Method: as §2, §3, §4, §5

[8] = HLMs, 0-50 μM pogostone, 0-30 min preincubation, substrate about 4-fold Km
[9] = 100 μM pogostone, HLMs, p < 0.05

T1 sequence (P08684 whole entry): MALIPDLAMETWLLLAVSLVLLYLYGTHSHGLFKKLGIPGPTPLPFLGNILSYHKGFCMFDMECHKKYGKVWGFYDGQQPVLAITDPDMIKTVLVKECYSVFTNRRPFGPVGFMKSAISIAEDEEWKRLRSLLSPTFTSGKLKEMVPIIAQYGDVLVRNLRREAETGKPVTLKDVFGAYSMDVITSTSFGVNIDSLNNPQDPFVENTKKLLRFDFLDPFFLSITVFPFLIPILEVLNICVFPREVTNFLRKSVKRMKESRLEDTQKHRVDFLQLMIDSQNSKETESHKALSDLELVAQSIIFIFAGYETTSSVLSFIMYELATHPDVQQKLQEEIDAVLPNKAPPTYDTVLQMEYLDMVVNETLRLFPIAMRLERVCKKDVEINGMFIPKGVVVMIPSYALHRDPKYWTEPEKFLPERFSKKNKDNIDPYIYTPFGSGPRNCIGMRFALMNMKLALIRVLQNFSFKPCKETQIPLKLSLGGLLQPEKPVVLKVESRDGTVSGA

- Effect of incubation time on inhibition of CYP3A4 (CYP3A4 [1]; 20 μM pogostone, 0-30 min, 1 mg/mL HLMs): time-dependent
- KI value of CYP3A4 (time-dependent inhibition) (CYP3A4 [1]; [8]): 5.86 µM
- Kinact value of CYP3A4 (time-dependent inhibition) (CYP3A4 [1]; [8]): 0.056 min⁻¹
- Activity of CYP2C9 compared with negative control (CYP2C9 [2]; [9]): significantly inhibited
- IC50 (CYP2C9 [2]; HLMs, 0-100 μM pogostone, diclofenac substrate): 12.1 µM
- Ki (CYP2C9 [2]; HLMs, Lineweaver-Burk, diclofenac): 6.46 µM
- Type of inhibition of CYP2C9 (CYP2C9 [2]; Lineweaver-Burk analysis): competitive
- Effect of incubation time on inhibition of CYP2E1 (CYP2E1 [4]): no significant effect
- Activity of CYP2E1 compared with negative control (CYP2E1 [5]; [9]): significantly inhibited
- IC50 (CYP2E1 [5]; HLMs, 0-100 μM pogostone, chlorzoxazone substrate): 14.9 µM
- Ki (CYP2E1 [5]; HLMs, Lineweaver-Burk, 25-250 μM chlorzoxazone): 7.67 µM
- Type of inhibition of CYP2E1 (CYP2E1 [5]; Lineweaver-Burk analysis): competitive
- Effect of incubation time on inhibition of CYP2C9 (CYP2C9 [6]): no significant effect
- Activity of CYP3A4 compared with negative control (CYP3A4 [7]; [9]): significantly inhibited
- IC50 (CYP3A4 [7]; HLMs, 0-100 μM pogostone, testosterone substrate): 11.4 µM
- Ki (CYP3A4 [7]; HLMs, Lineweaver-Burk, 20-100 μM testosterone): 5.69 µM
- Type of inhibition of CYP3A4 (CYP3A4 [7]; Lineweaver-Burk analysis): non-competitive
Structure (SMILES): Cc1cc(O)c(C(=O)CCC(C)C)c(=O)o1 [pogostone, Pogostone]
- Cmax [3]: 28.99 µg/mL
